ChEMBL document CHEMBL6134779, “Design of Proteolytic-Resistant Antifungal Peptides by Utilizing Minimum d-Amino Acid Ratios” (J Med Chem, 2024)
≈ marks a conversion by molar mass, not a printed value. Calls of active or inactive are those of the source. The rule behind the calls is not given here.

How the values were obtained:
[1] = Stability of the compound in NH4Cl assessed as change in secondary structure by CD spectra analysis; type: physicochemical
[2] = tested on: Candida tropicalis; assay: Antifungal activity against Candida tropicalis CGMCC 2.1975 assessed as inhibition of fungal growth incubated for 48 hrs; type: functional
[3] = Proteolytic stability of the compound assessed as trypsin (unknown origin)-mediated drug degradation measured after 8 hrs by RP-HPLC analysis; type: ADME; conditions: human
[4] = tested on: Candida albicans; assay: Antifungal activity against Candida albicans CGMCC 2.2086 assessed as inhibition of fungal growth incubated for 2 hrs in presence of chymotrypsin; type: functional, organism-based
[5] = tested on: HEK293; assay: Cytotoxicity against HEK293 cells assessed as reduction in cell viability at 128 uM incubated for 4 hrs by MTT assay; type: toxicity, cell-based; conditions: human, hek293, 4 h
[6] = Hemolytic activity in human red blood cells assessed as hemolysis incubated for 1 hr; type: toxicity, cell-based, Erythrocyte
[7] = tested on: Candida albicans; assay: Antifungal activity against Candida albicans CGMCC 2.2086 infected in C57BL/6 mouse keratitis model assessed as reduction in clinical scores at 5 mg/ml administered as 10 uL eye drop every 5 mins for first 1 hr and every 30 mins for next 7 hrs; type: functional, organism-based; conditions: route ou, time 8.0 hrs
[8] = tested on: Cell membrane; assay: Disruption of Candida albicans CGMCC 2.2086 cell membrane at 1X MIC measured after 1 hr by SYTO9/propidium iodide staining based fluorescence microscopic analysis; type: subcellular
[9] = tested on: Candida albicans; assay: Ratio of MIC95 for antifungal activity against Candida albicans CGMCC 2.2086 in presence of MgCl2 to MIC95 for MIC95 for antifungal activity against Candida albicans CGMCC 2.2086; type: functional
[10] = tested on: Candida albicans; assay: Induction of morphological changes in Candida albicans CGMCC 2.2086 assessed as separation of cell wall from plasma membrane at 1X MIC measured after 60 mins by TEM analysis; type: functional, organism-based
[11] = tested on: Candida albicans; assay: Fungicidal activity against Candida albicans CGMCC 2.2086 measured up to 120 mins by time-kill assay; type: functional, organism-based
[12] = tested on: Candida albicans; assay: Antifungal activity against Candida albicans CGMCC 2.2086 assessed as inhibition of fungal growth incubated for 2 hrs in presence of protease K; type: functional, organism-based
[13] = tested on: Candida albicans; assay: Resistance development in Candida albicans CGMCC 2.2086 measured after 30 passages by broth microdilution method; type: functional, organism-based
[14] = tested on: Candida albicans; assay: Antibiofilm activity against Candida albicans CGMCC 2.2086 assessed as eradication of mature biofilm at 4X MIC measured after 3 hrs by SYTO 9/propidium iodide staining based fluorescence microscopy; type: functional, organism-based
[15] = tested on: Candida albicans; assay: Antifungal activity against Candida albicans CGMCC 2.2086 infected in C57BL/6 mouse keratitis model assessed as reduction in fungal cell count at 5 mg/ml administered as 10 uL eye drop every 5 mins for first 1 hr and every 30 mins for next 7 hrs relative to control; type: functional; parameters: scale not given: the % may be the effect or the level left; conditions: route ou, time 8 hrs
[16] = tested on: Candida albicans; assay: Induction of morphological changes in Candida albicans CGMCC 2.2086 assessed as appearance of cell holes at 1X MIC measured after 60 mins by SEM analysis; type: functional, organism-based
[17] = tested on: Candida albicans; assay: Antifungal activity against Candida albicans CGMCC 2.2086 assessed as inhibition of fungal growth incubated for 48 hrs in presence of CaCl2; type: functional
[18] = Hemolytic activity in human red blood cells assessed as hemolysis rate at 512 uM incubated for 1 hr relative to control; type: toxicity, cell-based, Erythrocyte; conditions: read-out: Activity

CC[C@H](C)[C@H](N)C(=O)N[C@H](C(=O)N[C@H](CCCNC(=N)N)C(=O)N[C@@H](CCCNC(=N)N)C(=O)N[C@@H](Cc1c[nH]cn1)C(=O)N[C@H](C(=O)N[C@H](C(=O)N[C@H](C(=O)N[C@H](C(=O)N[C@H](CCCNC(=N)N)C(=O)N[C@@H](CCCNC(=N)N)C(=O)N[C@@H](Cc1c[nH]cn1)C(=O)N[C@H](C(=O)N[C@H](C(=O)N[C@H](C(=O)N[C@H](C(=O)N[C@H](CCCNC(=N)N)C(=O)N[C@@H](CCCNC(=N)N)C(=O)N[C@@H](Cc1c[nH]cn1)C(=O)N[C@H](C(=O)N[C@H](C(N)=O)[C@@H](C)CC)[C@@H](C)CC)[C@@H](C)CC)[C@@H](C)CC)[C@@H](C)CC)[C@@H](C)CC)[C@@H](C)CC)[C@@H](C)CC)[C@@H](C)CC)[C@@H](C)CC)[C@@H](C)CC
Stability [1]: Stable
MIC95 [2]: 2 µM (≈ 5.45 µg/mL)
Stability [3]: Stable
Activity [4]: Active
Activity [5]: Toxic
HC50 at 1 h [6]: > 512 µM
Activity [7]: Active
Activity [8]: Active
Ratio [9]: 4
Activity [10]: Active
Activity [11]: Dose-dependent-effect
Activity [12]: Active
Activity [13]: inactive
Activity [14]: Active
Activity [15]: >65%
Activity [16]: Active
MIC95 [17]: 8 µM
hemolysis at 1 h, 512 µM [18]: 40.8%
